For series [1], the target named is Nitric oxide synthase 1 (Rattus norvegicus, UniProt P29476).
The target in series [2] is T1, Nitric oxide synthase, inducible (Mus musculus, UniProt P29477).
T1 sequence (P29477 whole entry): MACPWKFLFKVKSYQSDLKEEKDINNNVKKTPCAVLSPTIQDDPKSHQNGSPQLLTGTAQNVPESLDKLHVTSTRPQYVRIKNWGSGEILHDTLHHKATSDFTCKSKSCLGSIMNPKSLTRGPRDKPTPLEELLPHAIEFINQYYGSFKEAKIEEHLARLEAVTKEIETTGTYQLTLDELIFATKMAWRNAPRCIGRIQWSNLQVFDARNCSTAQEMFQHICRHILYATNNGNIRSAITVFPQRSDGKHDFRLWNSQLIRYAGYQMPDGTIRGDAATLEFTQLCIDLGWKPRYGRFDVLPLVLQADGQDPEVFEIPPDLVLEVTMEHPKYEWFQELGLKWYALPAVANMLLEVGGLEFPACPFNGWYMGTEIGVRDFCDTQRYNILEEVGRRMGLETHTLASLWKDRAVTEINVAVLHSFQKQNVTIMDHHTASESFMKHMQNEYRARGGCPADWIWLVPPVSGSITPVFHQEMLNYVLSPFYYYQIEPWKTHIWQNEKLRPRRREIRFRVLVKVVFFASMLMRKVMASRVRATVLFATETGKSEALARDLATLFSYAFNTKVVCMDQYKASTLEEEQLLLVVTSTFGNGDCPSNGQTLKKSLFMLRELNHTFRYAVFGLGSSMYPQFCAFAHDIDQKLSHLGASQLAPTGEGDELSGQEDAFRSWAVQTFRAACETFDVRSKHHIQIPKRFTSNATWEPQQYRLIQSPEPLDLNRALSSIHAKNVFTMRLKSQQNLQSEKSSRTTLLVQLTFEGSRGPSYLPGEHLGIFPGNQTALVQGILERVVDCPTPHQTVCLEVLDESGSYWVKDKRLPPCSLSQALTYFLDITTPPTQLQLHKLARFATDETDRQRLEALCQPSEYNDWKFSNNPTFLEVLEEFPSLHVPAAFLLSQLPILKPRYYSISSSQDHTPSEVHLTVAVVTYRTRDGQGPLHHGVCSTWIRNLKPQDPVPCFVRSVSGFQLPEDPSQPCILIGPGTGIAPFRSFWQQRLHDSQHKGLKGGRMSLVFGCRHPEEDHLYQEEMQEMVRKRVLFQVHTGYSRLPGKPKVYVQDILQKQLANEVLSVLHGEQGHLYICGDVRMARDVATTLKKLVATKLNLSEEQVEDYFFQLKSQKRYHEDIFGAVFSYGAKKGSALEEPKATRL

The target in series [3] is Nitric oxide synthase 1 (Homo sapiens, UniProt P29475). The series can be described thus: Inhibition of human neuronal NOS expressed in Escherichia coli using L-arginine as substrate assessed as reduction in NO production by measuring oxidation of oxyHb to metHb measured for 6 mins by hemoglobin- NO capture assay.
Sequence of Nitric oxide synthase 1 (Homo sapiens, UniProt P29475) (P29475 whole entry): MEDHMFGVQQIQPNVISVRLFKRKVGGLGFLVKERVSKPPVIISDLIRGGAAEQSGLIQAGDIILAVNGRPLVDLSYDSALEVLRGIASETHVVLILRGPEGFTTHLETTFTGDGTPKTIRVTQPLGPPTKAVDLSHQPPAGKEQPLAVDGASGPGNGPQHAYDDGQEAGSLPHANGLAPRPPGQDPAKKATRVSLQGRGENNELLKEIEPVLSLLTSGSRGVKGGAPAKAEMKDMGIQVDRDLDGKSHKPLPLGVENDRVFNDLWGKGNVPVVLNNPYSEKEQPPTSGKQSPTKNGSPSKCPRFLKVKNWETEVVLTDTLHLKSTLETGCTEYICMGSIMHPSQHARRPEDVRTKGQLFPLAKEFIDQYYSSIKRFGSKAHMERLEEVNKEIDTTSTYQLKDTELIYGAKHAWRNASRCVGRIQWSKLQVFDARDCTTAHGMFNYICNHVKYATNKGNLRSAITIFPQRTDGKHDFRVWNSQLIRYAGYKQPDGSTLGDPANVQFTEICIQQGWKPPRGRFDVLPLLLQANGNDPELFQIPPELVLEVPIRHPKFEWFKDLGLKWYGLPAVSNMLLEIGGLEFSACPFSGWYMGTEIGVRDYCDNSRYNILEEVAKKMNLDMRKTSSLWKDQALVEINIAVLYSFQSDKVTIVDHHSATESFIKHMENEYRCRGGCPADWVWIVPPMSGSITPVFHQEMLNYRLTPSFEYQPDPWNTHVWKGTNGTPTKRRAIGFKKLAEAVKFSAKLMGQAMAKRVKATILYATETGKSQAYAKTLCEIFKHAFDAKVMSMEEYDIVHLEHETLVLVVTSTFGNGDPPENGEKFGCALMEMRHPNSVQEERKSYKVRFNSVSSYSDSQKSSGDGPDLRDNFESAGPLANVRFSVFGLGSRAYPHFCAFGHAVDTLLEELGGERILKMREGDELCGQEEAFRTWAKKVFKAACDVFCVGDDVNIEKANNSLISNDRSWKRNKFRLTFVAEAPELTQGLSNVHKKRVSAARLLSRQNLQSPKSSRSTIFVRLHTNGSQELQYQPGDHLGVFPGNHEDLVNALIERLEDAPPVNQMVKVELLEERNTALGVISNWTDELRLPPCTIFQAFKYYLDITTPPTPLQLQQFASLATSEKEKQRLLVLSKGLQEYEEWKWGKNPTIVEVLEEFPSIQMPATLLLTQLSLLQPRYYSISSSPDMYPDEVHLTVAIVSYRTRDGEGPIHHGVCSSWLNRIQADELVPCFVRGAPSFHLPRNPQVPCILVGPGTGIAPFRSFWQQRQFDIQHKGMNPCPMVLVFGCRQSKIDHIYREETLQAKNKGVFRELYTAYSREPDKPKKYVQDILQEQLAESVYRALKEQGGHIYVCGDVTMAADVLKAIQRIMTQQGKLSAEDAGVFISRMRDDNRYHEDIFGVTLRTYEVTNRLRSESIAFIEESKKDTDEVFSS
A further series addresses T2, Nitric oxide synthase 3 (Homo sapiens, UniProt P29474).
T2 sequence (P29474 whole entry): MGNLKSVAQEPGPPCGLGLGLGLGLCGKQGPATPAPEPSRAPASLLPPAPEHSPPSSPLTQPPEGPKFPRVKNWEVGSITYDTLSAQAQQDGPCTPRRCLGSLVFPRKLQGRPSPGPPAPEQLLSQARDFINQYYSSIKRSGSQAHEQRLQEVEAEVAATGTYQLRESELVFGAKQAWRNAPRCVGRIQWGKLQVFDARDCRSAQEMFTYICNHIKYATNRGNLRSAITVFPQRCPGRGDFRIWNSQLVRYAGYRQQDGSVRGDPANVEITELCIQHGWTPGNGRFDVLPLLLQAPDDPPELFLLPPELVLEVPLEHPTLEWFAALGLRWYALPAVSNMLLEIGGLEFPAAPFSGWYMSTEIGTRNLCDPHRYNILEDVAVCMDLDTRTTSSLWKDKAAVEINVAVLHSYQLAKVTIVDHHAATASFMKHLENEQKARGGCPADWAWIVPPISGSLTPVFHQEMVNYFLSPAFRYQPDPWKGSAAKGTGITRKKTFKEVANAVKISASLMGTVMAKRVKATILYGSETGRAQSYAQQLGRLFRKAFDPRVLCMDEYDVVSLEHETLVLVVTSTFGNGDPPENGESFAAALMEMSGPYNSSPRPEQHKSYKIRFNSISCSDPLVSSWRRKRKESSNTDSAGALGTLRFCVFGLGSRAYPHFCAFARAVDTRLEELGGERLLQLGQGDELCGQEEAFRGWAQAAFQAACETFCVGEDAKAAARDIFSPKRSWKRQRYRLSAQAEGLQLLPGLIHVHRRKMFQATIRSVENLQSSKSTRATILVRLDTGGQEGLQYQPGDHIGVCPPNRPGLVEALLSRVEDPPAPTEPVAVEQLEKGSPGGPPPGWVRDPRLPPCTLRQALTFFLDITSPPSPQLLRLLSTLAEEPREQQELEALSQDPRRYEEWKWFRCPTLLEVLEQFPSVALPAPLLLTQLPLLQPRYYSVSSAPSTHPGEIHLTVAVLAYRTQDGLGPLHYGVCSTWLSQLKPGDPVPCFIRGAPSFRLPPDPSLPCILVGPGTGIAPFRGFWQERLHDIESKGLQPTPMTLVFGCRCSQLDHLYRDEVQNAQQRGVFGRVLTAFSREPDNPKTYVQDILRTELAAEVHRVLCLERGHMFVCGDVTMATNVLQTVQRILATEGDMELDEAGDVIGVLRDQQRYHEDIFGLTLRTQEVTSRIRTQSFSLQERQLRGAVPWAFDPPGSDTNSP
The format is ADME.

The next series is described as follows: physchem. Particulars: PAMPA. For orientation: In PAMPA a lipid-coated filter parts donor from acceptor wells.

As a reminder, the Ki is a measure of affinity in units of concentration, obtained from inhibition or displacement. As usually defined, the Papp is a coefficient for how fast a substance crosses the barrier.

Sequence of Nitric oxide synthase 1 (Rattus norvegicus, UniProt P29476) (P29476 whole entry): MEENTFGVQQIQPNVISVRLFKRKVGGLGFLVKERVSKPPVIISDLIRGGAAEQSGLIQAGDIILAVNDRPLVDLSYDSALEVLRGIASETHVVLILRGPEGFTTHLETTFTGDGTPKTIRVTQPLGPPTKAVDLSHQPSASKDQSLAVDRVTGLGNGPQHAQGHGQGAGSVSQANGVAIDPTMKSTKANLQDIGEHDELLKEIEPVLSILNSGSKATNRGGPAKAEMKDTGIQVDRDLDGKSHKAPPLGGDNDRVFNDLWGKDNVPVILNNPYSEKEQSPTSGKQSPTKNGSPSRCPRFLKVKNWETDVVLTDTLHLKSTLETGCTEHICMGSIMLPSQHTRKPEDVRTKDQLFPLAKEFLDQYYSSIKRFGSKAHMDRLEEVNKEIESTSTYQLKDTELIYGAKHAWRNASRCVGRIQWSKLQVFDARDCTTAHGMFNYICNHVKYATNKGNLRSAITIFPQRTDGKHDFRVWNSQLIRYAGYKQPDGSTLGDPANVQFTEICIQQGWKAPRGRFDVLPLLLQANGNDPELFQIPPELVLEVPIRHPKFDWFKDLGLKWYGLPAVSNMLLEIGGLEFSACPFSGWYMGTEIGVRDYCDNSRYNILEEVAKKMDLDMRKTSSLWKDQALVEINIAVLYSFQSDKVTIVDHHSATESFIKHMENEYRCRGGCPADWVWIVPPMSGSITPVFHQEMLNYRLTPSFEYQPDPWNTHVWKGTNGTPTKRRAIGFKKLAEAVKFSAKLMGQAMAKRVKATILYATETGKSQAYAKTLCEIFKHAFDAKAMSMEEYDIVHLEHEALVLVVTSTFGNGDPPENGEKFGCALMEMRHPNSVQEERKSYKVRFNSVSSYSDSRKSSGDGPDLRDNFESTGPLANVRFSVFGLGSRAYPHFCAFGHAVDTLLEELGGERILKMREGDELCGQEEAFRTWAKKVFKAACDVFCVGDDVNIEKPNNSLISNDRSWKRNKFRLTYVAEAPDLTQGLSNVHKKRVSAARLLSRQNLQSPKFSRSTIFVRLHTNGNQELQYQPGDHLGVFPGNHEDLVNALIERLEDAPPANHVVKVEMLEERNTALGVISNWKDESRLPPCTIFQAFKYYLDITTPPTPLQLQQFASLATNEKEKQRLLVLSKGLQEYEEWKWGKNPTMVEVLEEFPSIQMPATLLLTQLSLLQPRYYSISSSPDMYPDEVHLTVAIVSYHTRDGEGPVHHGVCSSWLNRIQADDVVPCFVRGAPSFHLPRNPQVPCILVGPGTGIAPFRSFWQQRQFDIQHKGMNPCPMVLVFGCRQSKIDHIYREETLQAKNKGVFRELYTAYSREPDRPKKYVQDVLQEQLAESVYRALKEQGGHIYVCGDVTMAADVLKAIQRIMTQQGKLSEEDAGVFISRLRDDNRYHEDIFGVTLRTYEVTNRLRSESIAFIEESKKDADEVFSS
Description for physchem: Effective permeability of compound at 200 uM after 17 hrs by PAMPA-BBB assay

With `Cc1cc(N)nc(CCc2cc(CCCN(C)C)cc(C(F)(F)F)c2)c1`, the Ki was found to be 541 nM at Nitric oxide synthase 1 [1] and 36000 nM in series [2].

With `CNCc1ccc(-c2cncc(CCc3cc(C)cc(N)n3)c2)cc1`, the Ki at Nitric oxide synthase 1 [1] was 57 nM; in series [2] it was 4210 nM; at Nitric oxide synthase 1 [3] it was 100 nM.

In the case of `CNCCCc1cc(F)cc(CCc2cc(C)cc(N)n2)c1`, the inhibition constant Ki at Nitric oxide synthase 1 [1] came to 41 nM; in series [2], 4650 nM; at Nitric oxide synthase 3, 39500 nM; on Nitric oxide synthase 1 [3], 65 nM.

With `CNCCCc1cc(CCc2cc(C)cc(N)n2)cc(C(F)(F)F)c1`, the Ki on Nitric oxide synthase 1 [1] was determined as 346 nM; in series [2], 33700 nM; at Nitric oxide synthase 3, 51500 nM; on Nitric oxide synthase 1 [3], 598 nM.

Consider `CNCCCc1cc(C#N)cc(CCc2cc(C)cc(N)n2)c1`, for which the inhibition constant (Ki) at Nitric oxide synthase 1 [1] was determined as 252 nM; in series [2], 16200 nM; at Nitric oxide synthase 3, 42100 nM; on Nitric oxide synthase 1 [3], 516 nM.

Regarding `CNCc1cccc(-c2cncc(CCc3cc(C)cc(N)n3)c2)c1`, the Ki came out at 47 nM on Nitric oxide synthase 1 [1], 3010 nM in series [2], 8670 nM at Nitric oxide synthase 3 and 82 nM on Nitric oxide synthase 1 [3]. This compound came in with a Papp at 17 h, 200 µM in “physchem” of 5.56 ×10⁻⁶ cm/s.

With `CNCc1cccc(-c2cc(F)cc(CCc3cc(C)cc(N)n3)c2)c1`, the Ki worked out at 44 nM on Nitric oxide synthase 1 [1], 3010 nM in series [2], 19400 nM on Nitric oxide synthase 3 and 83 nM on Nitric oxide synthase 1 [3]. The Papp at 17 h, 200 µM in the series “physchem” is 17.4 ×10⁻⁶ cm/s.

As for `Cc1cc(N)nc(CCc2cc(C#N)cc(CCCN(C)C)c2)c1`, the results for the Ki (at Nitric oxide synthase 1 [1]; in series [2]) were 232 nM and 16400 nM, respectively.

With `CNCc1ccc(-c2cc(F)cc(CCc3cc(C)cc(N)n3)c2)cc1`, the Ki at Nitric oxide synthase 1 [1] amounted to 185 nM; in series [2], 10900 nM; on Nitric oxide synthase 3, 69900 nM; at Nitric oxide synthase 1 [3], 362 nM.

Consider `CNc1cccc(-c2cncc(CCc3cc(C)cc(N)n3)c2)c1`, for which the Ki on Nitric oxide synthase 1 [1] was 1700 nM; in series [2], 6700 nM.

Consider `CNCCCc1cccc(CCc2cc(C)cc(N)n2)c1`, for which the Ki was 48 nM on Nitric oxide synthase 1 [1], 3610 nM in series [2], 20100 nM at Nitric oxide synthase 3 and 55 nM on Nitric oxide synthase 1 [3]. Besides, the Papp at 17 h, 200 µM in the series “physchem” amounted to 10.4 ×10⁻⁶ cm/s.

As to `Cc1cc(N)nc(CCc2cccc(CCCN(C)C)c2)c1`, the Ki at Nitric oxide synthase 1 [1] was 60 nM; in series [2], 3460 nM; at Nitric oxide synthase 3, 20800 nM; at Nitric oxide synthase 1 [3] it was 43 nM.

Source of the values: ChEMBL document CHEMBL4028887, “Improvement of Cell Permeability of Human Neuronal Nitric Oxide Synthase Inhibitors Using Potent and Selective 2-Aminopyridine-Based Scaffolds with a Fluorobenzene Linker” (J Med Chem, 2017).
